# Reference: US12012411B2, “Viral replication inhibitors” (Katholieke Universiteit Leuven, priority 2011, dated 2024)
# Read-outs that look alike come from different tables or passages of the source.
# Columns and labels:
# DENV-2 NGC = experiment: Antiviral activity against DENV-2 NGC in Vero-B cells (viral RNA load by RT-qPCR); assay type: cell-based, Dengue virus; settings: DENV-2 in Vero-B cells, inhibition of viral RNA replication by 50% (Table 3)
# [1] = tested on: DENV-1 Djibouti strain D1/H/IMTSSA/98/606; experiment: Antiviral activity against DENV-1 in Vero-B cells (viral RNA load by RT-qPCR); assay type: cell-based, Dengue virus
# [2] = tested on: DENV-3 strain H87 prototype; experiment: Antiviral activity against DENV-3 in Vero-B cells (viral RNA load by RT-qPCR); assay type: cell-based, Dengue virus
# [3] = tested on: DENV-4 strain Dak HD 34 460; experiment: Antiviral activity against DENV-4 in Vero-B cells (viral RNA load by RT-qPCR); assay type: cell-based, Dengue virus; settings: Dengue virus, DENV4, Vero B
# in vitro = settings: African green monkey; for CC50 at 4 days: uninfected quiescent Vero-B cells
SMILES,EC50 (DENV-2 NGC) [µM],EC50 [1] [µM],EC50 [2] [µM],EC50 [3] [µM],CC50 at 4 days (in vitro) [µM],"EC50 (DENV-2 NGC; Dengue virus, DENV2, Vero B) [µM]","EC50 ([1]; Dengue virus, DENV1, Vero B) [µM]","EC50 ([2]; Dengue virus, DENV3, Vero B) [µM]",CC50 (in vitro) [µM]
"COc1cncc(NC(C(=O)c2c[nH]c3ccccc23)c2ccccc2)c1 (single isomer, unassigned) [CPD-299]",0.02,0.5,0.78,3.65,62,,,,
"COc1cncc(NC(C(=O)c2c[nH]c3ccc(F)cc23)c2ccc(OC)nc2)c1 (single isomer, unassigned) [CPD-322]",0.02,0.3,0.32,3,51,,,,
COc1cc(NC(C(=O)c2c[nH]c3ccccc23)c2ccccc2)ccc1Cl (stereo not shown) [CPD-004],,,,,11,0.19,4.53,8.55,
COc1cccc(NC(C(=O)c2c[nH]c3ccccc23)c2cc(C)on2)c1 (stereo not shown) [CPD-025],,,,11.8,48,0.68,7.89,13,
COc1cccc(NC(C(=O)c2c[nH]c3ccccc23)c2cncnc2)c1 (stereo not shown) [CPD-029],,,,,65,0.84,2.82,,
COc1cccc(NC(C(=O)c2c[nH]c3ccccc23)c2cn3ccccc3n2)c1 (stereo not shown) [CPD-030],,,,13.2,> 126,0.09,4.8,6.24,
COc1cccc(NC(C(=O)c2c[nH]c3ccccc23)c2cccc3ccnn23)c1 (stereo not shown) [CPD-043],,,,4.76,> 126,0.29,3.38,5.88,
COc1cc(NC(C(=O)c2c[nH]c3ccccc23)c2ccccc2)ccn1 (stereo not shown) [CPD-045],,,,11.1,> 139,0.06,0.64,0.87,
COc1cccc(NC(C(=O)c2cn(C)c3ccccc23)c2ccccc2)c1 (stereo not shown) [CPD-049],,,,2.27,> 134,0.08,2.21,10.5,
CN(C)C(=O)c1cccc(NC(C(=O)c2c[nH]c3ccccc23)c2ccccc2)c1 (stereo not shown) [CPD-051],,,,32.6,> 125,2.47,5.76,24.2,
COc1cccc(NC(C(=O)c2c[nH]c3ccccc23)c2ccc(OC)nc2)c1 (stereo not shown) [CPD-055],,,,4.44,50,0.07,1.86,3.38,
COc1cccc(NC(C(=O)N2CCc3ccccc32)c2ccccc2)c1 (stereo not shown) [CPD-056],,,,5.92,> 139,0.45,10.6,69.2,
COc1cccc(NC(C(=O)c2c[nH]c3c(Cl)cccc23)c2ccccc2)c1 (stereo not shown) [CPD-084],,,,3.09,> 127,0.03,< 0.5,2.38,
COc1cccc(NC(C(=O)c2c[nH]c3ccc(Cl)cc23)c2ccccc2)c1 (stereo not shown) [CPD-086],,,,3.57,12,0.04,0.97,1.05,
COc1cc(NC(C(=O)c2c[nH]c3ccccc23)c2ccccc2)nc(OC)n1 (stereo not shown) [CPD-087],,,,,> 128,0.8,6.05,,
COc1cccc(NC(C(=O)c2c[nH]c3ccc(OC)cc23)c2ccccc2)c1 (stereo not shown) [CPD-092],,,,6.73,19,0.1,,0.93,
COc1cccc(NC(C(=O)c2cn(CCO)c3ccccc23)c2ccccc2)c1 (stereo not shown) [CPD-104],,,,14.9,,0.35,3.85,24,65
COc1cccc(NC(C(=O)c2c[nH]c3cc(Cl)ccc23)c2cc(C)on2)c1 (stereo not shown) [CPD-116],,,,,13,0.14,4.19,9.3,
COc1cccc(NC(C(=O)c2c[nH]c3c(Cl)cccc23)c2ccc(C#N)cc2)c1 (stereo not shown) [CPD-120],,,,,11,0.02,2.31,5.18,
COc1cccc(NC(C(=O)c2c[nH]c3cc(C)ccc23)c2ccccc2)c1 (stereo not shown) [CPD-122],,,,,16,0.02,3.64,8.25,
COc1cccc(NC(C(=O)c2cn(CCCO)c3ccccc23)c2ccccc2)c1 (stereo not shown) [CPD-128],,,,,,0.56,7.5,18.4,63
COc1cccc(NC(C(=O)c2c[nH]c3ccccc23)c2c(F)cc(C#N)cc2F)c1 (stereo not shown) [CPD-133],,,,,19,0.04,2.25,4.17,
COC(=O)c1ccc2[nH]cc(C(=O)C(Nc3cccc(OC)c3)c3ccccc3)c2c1 (stereo not shown) [CPD-142],,,,,13,0.1,1.71,3.97,
COc1cccc(NC(C(=O)c2c[nH]c3ccccc23)c2ccccc2F)c1 (stereo not shown) [CPD-144],,,,,20,0.06,2.89,3.08,
COc1cccc(NC(C(=O)c2c[nH]c3c(F)cccc23)c2ccc(OC)nc2)c1 (stereo not shown) [CPD-155],,,,,15,0.08,2.94,,
CCOc1ccc(NC(C(=O)c2c[nH]c3ccccc23)c2ccccc2)cc1OC (stereo not shown) [CPD-173],,,,,69,0.02,30.7,,

SMILES,EC50 (DENV-2 NGC) [µM],EC50 [1] [µM],EC50 [2] [µM],EC50 [3] [µM],CC50 at 4 days (in vitro) [µM],"EC50 (DENV-2 NGC; Dengue virus, DENV2, Vero B) [µM]","EC50 ([1]; Dengue virus, DENV1, Vero B) [µM]","EC50 ([2]; Dengue virus, DENV3, Vero B) [µM]",CC50 (in vitro) [µM]
COc1cccc(NC(C(=O)c2c[nH]c3ncccc23)c2ccccc2)c1 (stereo not shown) [CPD-194],,,,18.7,61,0.94,,,
COc1cccc(NC(C(=O)c2cn(S(=O)(=O)C3CCOC3)c3ccccc23)c2ccccc2)c1 (stereo not shown) [CPD-208],,,,6.95,> 102,0.37,,6.65,
COc1cc(NC(C(=O)c2cn(CCCO)c3ccccc23)c2ccccc2)cc(OC)c1 (stereo not shown) [CPD-210],,,,,,0.2,1.03,,13
COc1cccc(NC(C(=O)c2cn(S(C)(=O)=O)c3ccc(F)cc23)c2ccccc2)c1 (stereo not shown) [CPD-212],,,,2.64,> 110,0.42,,5.9,
COc1cccc(NC(C(=O)c2c[nH]c3ccc(CO)cc23)c2ccccc2)c1 (stereo not shown) [CPD-219],,,,,86,0.52,,22.1,
COc1cccc(NC(C(=O)c2c[nH]c3nc(C)ccc23)c2ccccc2)c1 (stereo not shown) [CPD-225],,,,1.16,> 134,0.38,,2.99,
COc1cccc(NC(C(=O)c2c[nH]c3ncc(F)cc23)c2ccccc2)c1 (stereo not shown) [CPD-227],,,,7.45,> 124,0.27,,2.91,
COc1cccc(NC(C(=O)c2c[nH]c3cc(N4CCOCC4)ccc23)c2ccccc2)c1 (stereo not shown) [CPD-237],,,,8.31,> 113,1.35,,,
CCOc1ncc(NC(C(=O)c2c[nH]c3ccccc23)c2ccccc2)cc1OC (stereo not shown) [CPD-258],,,,9.42,72,1.47,,,
COc1cccc(NC(C(=O)c2nn(C)c3ccc(F)cc23)c2ccccc2)c1 (stereo not shown) [CPD-270],,,,,> 128,0.13,1.57,1.87,
COc1cccc(NC(C(=O)c2c[nH]c3cc(F)ccc23)c2cnc(OC)cn2)c1 (stereo not shown) [CPD-297],,,,6.68,22,0.03,,0.57,
COc1cccc(NC(C(=O)c2nn(CCO)c3ccccc23)c2ccccc2)c1 (stereo not shown) [CPD-303],,,,,,0.52,3.26,,71
COc1cc(CO)cc(NC(C(=O)c2cn(C)c3ccccc23)c2ccccc2)c1 (stereo not shown) [CPD-307],,,,11.5,> 124,0.18,2.43,,
COc1cc(NC(C(=O)c2c[nH]c3c(C)cccc23)c2ccc(F)cc2)cc(OC)c1 (stereo not shown) [CPD-341],,,,3.36,12,0.002,,0.05,
COc1cc(NC(C(=O)c2c[nH]c3ccccc23)c2cccnc2)cc(OCCO)c1 (stereo not shown) [CPD-343],,,,,> 119,0.19,,3.11,
COc1cc(CO)cc(NC(C(=O)c2c[nH]c3cc(F)ccc23)c2cccnc2)c1 (stereo not shown) [CPD-344],,,,25.9,94,0.09,,0.79,
COc1cc(NC(C(=O)c2c[nH]c3ccccc23)c2ccccc2)c(F)c(OC)c1 (stereo not shown) [CPD-345],,,,2.94,106,0.21,,1.73,
COc1cc(NC(C(=O)c2c[nH]c3ccc(F)cc23)c2ccccc2)cc(OCCO)c1 (stereo not shown) [CPD-355],,,,6.17,44,0.03,,0.3,
COc1cc(O)cc(NC(C(=O)c2c[nH]c3ccccc23)c2ccccc2)c1 (stereo not shown) [CPD-359],,,,5.48,52,0.1,,,
COc1cc(NC(C(=O)c2c[nH]c3c(CCN(C)C)cccc23)c2ccccc2)cc(OC)c1 (stereo not shown) [CPD-365],,,,,12,2.03,,,
O=C(c1c[nH]c2ccccc12)C(Nc1cccc(O)c1)c1ccccc1 (stereo not shown) [CPD-366],,,,,78,0.26,,,
CCOC(=O)CCCOc1cc(NC(C(=O)c2c[nH]c3ccccc23)c2ccccc2)cc(OC)c1 (stereo not shown) [CPD-367],,,,,> 103,0.04,,,
COc1cc(NC(C(=O)c2c[nH]c3ccccc23)c2ccc(C)cc2)cc(OCCO)c1 (stereo not shown) [CPD-369],,,,,11,0.01,,,
COc1cc(NC(C(=O)c2c[nH]c3ccc(CCO)cc23)c2ccccc2)cc(OC)c1 (stereo not shown) [CPD-370],,,,,66,0.06,,,
COc1cc(NC(C(=O)c2c[nH]c3c(CCO)cccc23)c2ccc(F)cc2)cc(OC)c1 (stereo not shown) [CPD-371],,,,,12,0.03,,,
